pIC50: −log10 of the molar value.
Columns and labels:
[1] = Inhibition of EZH2 in human DKFZ-EP1 cells assessed as reduction in cell viability incubated for 120 hrs by MTT assay
[2] = Inhibition of EZH2 in human EPN8 cells assessed as reduction in cell viability incubated for 120 hrs by MTT assay
[3] = Inhibition of EZH2 in human BXD-1425EPN cells assessed as reduction in cell viability incubated for 120 hrs by MTT assay

CCCc1cc(C)[nH]c(=O)c1CNC(=O)c1cc(-c2ccnc(N3CCN(C)CC3)c2)cc2c1cnn2C(C)C
pIC50 [1]: 4.70
pIC50 [2]: 4.70
pIC50 [3]: 4.80
